Laboratory results published in patent publication US7449197B2, “Liposome formulation of 6,9-bis[(2-aminoethyl)-amino]benzo[g]isoquinoline-5, 10-dione dimaleate” (Cell Therapeutics Europe S.r.l., priority 1999, dated 2008).
Marks after values point to notes of the source that are not given here.

Legend:
mice = settings: male, mouse, in vivo, iv, 40 mg/kg
Method: The liposome formulations according to the invention were tested in vivo for the antitumor activity and toxicity. […] In particular, the inhibitory activity on sudden deaths was evaluated compared with the control group, which was administered with a formulation of the free drug.

CD1 mice = assay type: in vivo; settings: 40 or 60 mg/kg i.v. bolus
P388 murine leukemia = assay: Antitumor activity against P388 murine leukemia in mice (survival time, T/C %); assay type: in vivo
Method: Animals: mice were provided by Charles River Breeding Laboratories (Calco, Como, Italy); they were male mice of 6-8 weeks under standard housing conditions. Formulations: BBR 2778 dissolved and diluted in sterile water just before administration of 10 mg/kg to mice was used as reference. The liposome formulation of Example 4 was used. Tumor model: P388 murine leukemia, provided by NCI Frederick Cancer Facility (USA) is maintained through a series of intraperitoneal transplants in DBA2 mice. Mice were transplanted with 10^6 cells/mouse of P388 leukemia, the liposome compound and the reference standard were administered i.v. at days 1, 4, 7 after tumor transplant. The antitumor activity was determined as percent increase in the survival time of mice, expressed by the T/C % ratio of the mean survival time (TMS) of the treated group (T) to the mean survival time of the control group (C): […]

## NCCNc1ccc(NCCN)c2c1C(=O)c1ccncc1C2=O.O=C(O)/C=C\C(=O)O [BBR 2778 solution, 6,9-bis-[(2-aminoethyl)amino]benzo[g]isoquinoline-5,10-dione dimaleate]
mice
  toxicity (percent toxic deaths): 60.4%
CD1 mice
  death during or immediately after treatment: death of some animals is observed
P388 murine leukemia; 18 mg/kg/day i.v. at days 1, 4, 7 after tumor transplant
  T/C %: 199** %
P388 murine leukemia; 27 mg/kg/day i.v. at days 1, 4, 7 after tumor transplant
  T/C %: 226** %
P388 murine leukemia; 40 mg/kg/day i.v. at days 1, 4, 7 after tumor transplant, dimaleate
  T/C %: 159** %
P388 murine leukemia; 40 mg/kg/day i.v. at days 1, 4, 7 after tumor transplant, listed as BBR 2778 in solution, dimaleate
  T/C %: 159%
P388 murine leukemia; 60 mg/kg/day i.v. at days 1, 4, 7 after tumor transplant
  T/C %: 36** %
